{"source": "patent US7138361B2", "about": "“Herbicidal heterocycles” (E. I. du Pont de Nemours and Company, priority 2000, dated 2006)", "assay_type_in_all_cases": "in vivo", "key": {"[1]": {"tested_on": "crabgrass (Digitaria sanguinalis)", "assay": "Test B postemergence", "details": "13 to 15 days", "how_it_was_run": "(§1)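 Pre: seeded pots sprayed, chemical in non-phytotoxic solvent/surfactant mix. Post: plants 2–18 cm, 1–4 leaf, same formulation. Greenhouse 13–15 d; visual % control vs untreated, 0–100 scale.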"}, "[2]": {"tested_on": "lambsquarters (Chenopodium album)", "assay": "Test B postemergence", "details": "13 to 15 days", "how_it_was_run": "as §1"}, "wild oat (Avena fatua)": {"tested_on": "wild oat (Avena fatua)", "assay": "Test B postemergence", "details": "13 to 15 days", "how_it_was_run": "as §1"}, "[3]": {"tested_on": "cocklebur (Xanthium strumarium)", "assay": "Test B postemergence", "details": "13 to 15 days", "how_it_was_run": "as §1"}, "[4]": {"tested_on": "lambsquarters (Chenopodium album)", "assay": "Test C preemergence", "from_the_text": "(§2) Seeds of plant species selected from bermudagrass (Cynodon dactylon), Surinam grass (Brachiaria decumbens), cocklebur (Xanthium strumarium), corn (Zea mays), crabgrass (Digitaria sanguinalis), woolly cupgrass (Eriochloa villosa), giant foxtail (Setaria faberii), goosegrass (Eleusine indica), johnsongrass (Sorghum halepense), kochia (Kochia scoparia), lambsquarters (Chenopodium album), morningglory (Ipomoea hederacea), yellow nutsedge (Cyperus esculentus), pigweed (Amaranthus retroflexus), common ragweed (Ambrosia elatior), soybean (Glycine max) and velvetleaf (Abutilon theophrasti) were planted and treated preemergence with test chemicals formulated in a non-phytotoxic solvent mixture which included a surfactant.\n(§3) At the same time, plants selected from these crop and weed species and also winter barley (Hordeum vulgare), blackgrass (Alopecurus myosuroides), canary grass (Phalaris minor), chickweed (Stellaria media), downy brome (Bromus tectorum), green foxtail (Setaria viridis), Italian ryegrass (Lolium multiflorum), wheat (Triticum aestivum), wild oat (Avena fatua) and windgrass (Apera spica-venti) were treated with postemergence applications of some of the test chemicals formulated in the same manner. Plants ranged in height from 2 to 18 cm (1- to 4-leaf stage) for postemergence treatments. Plant species in the flooded paddy test consisted of rice (Oryza saliva), smallflower flatsedge (Cyperus difformis), duck salad (Heteranthera limosa) and barnyardgrass (Echinochloa crus-galli) grown to the 2-leaf stage for testing. Treated plants and controls were maintained in a greenhouse for 12 to 14 days, after which time all species were compared to controls and visually evaluated. Plant response ratings, summarized in Table C, are based on a scale of 0 to 100 where 0 is no effect and 100 is complete control. A dash (-) response means no test result."}, "[5]": {"tested_on": "johnsongrass (Sorghum halepense)", "assay": "Test C preemergence", "from_the_text": "as §2, §3"}, "[6]": {"tested_on": "velvetleaf (Abutilon theophrasti)", "assay": "Test C preemergence", "from_the_text": "as §2, §3"}, "[7]": {"tested_on": "cocklebur (Xanthium strumarium)", "assay": "Test C preemergence", "from_the_text": "as §2, §3"}, "[8]": {"tested_on": "woolly cupgrass (Eriochloa villosa)", "assay": "Test C preemergence", "from_the_text": "as §2, §3"}, "Nightshade": {"tested_on": "Nightshade", "assay": "Test C preemergence", "from_the_text": "as §2, §3"}, "[9]": {"tested_on": "pigweed (Amaranthus retroflexus)", "assay": "Test C preemergence", "from_the_text": "as §2, §3"}, "kochia (Kochia scoparia)": {"tested_on": "kochia (Kochia scoparia)", "assay": "Test C preemergence", "from_the_text": "as §2, §3"}, "[10]": {"tested_on": "giant foxtail (Setaria faberii)", "assay": "Test C preemergence", "from_the_text": "as §2, §3"}, "[11]": {"tested_on": "Surinam grass (Brachiaria decumbens)", "assay": "Test C preemergence", "from_the_text": "as §2, §3"}, "soybean (Glycine max)": {"tested_on": "soybean (Glycine max)", "assay": "Test C preemergence", "from_the_text": "as §2, §3"}, "corn (Zea mays)": {"tested_on": "corn (Zea mays)", "assay": "Test C preemergence", "from_the_text": "as §2, §3"}, "[12]": {"tested_on": "bermudagrass (Cynodon dactylon)", "assay": "Test C preemergence", "from_the_text": "as §2, §3"}, "Sunflower": {"tested_on": "Sunflower", "assay": "Test C preemergence", "details": "Rate 62 g/ha; scale 0 to 100, 0 no effect, 100 complete control", "from_the_text": "as §2, §3"}, "[13]": {"details": "Rate 125 g/ha, scale 0 (no effect) to 100 (complete control)"}, "[14]": {"details": "Rate 500 g/ha, scale 0 to 100, 0 is no effect, 100 is complete control"}, "[15]": {"details": "Rate 62 g/ha, scale 0 to 100, 0 no effect, 100 complete control"}, "[16]": {"details": "preemergence, Rate 31 g/ha, scale 0 to 100"}, "[17]": {"details": "preemergence, Rate 125 g/ha, scale 0 to 100, 0 no effect, 100 complete control"}}}
{"molecule": "CCC(CC)c1ccn(C2SCN(c3cccc(C(F)(F)F)c3)C2=O)n1", "note": "(stereo not drawn) [Compound 21]", "values": [{"measurement": "Plant response rating, Crabgrass", "setting": "[1]; [13]", "result": 30}, {"measurement": "Plant response rating, Crabgrass", "setting": "[1]; [14]", "result": 70}, {"measurement": "Plant response rating, Lambsquarters", "setting": "[2]; [13]", "result": 100}, {"measurement": "Plant response rating, Lambsquarters", "setting": "[2]; [14]", "result": 100}, {"measurement": "Plant response rating, Wild Oat", "setting": "wild oat (Avena fatua); [13]", "result": 0}, {"measurement": "Plant response rating, Wild Oat", "setting": "wild oat (Avena fatua); [14]", "result": 0}, {"measurement": "Plant response rating, Cocklebur", "setting": "[3]; [13]", "result": 70}, {"measurement": "Plant response rating, Cocklebur", "setting": "[3]; [14]", "result": 80}, {"measurement": "Plant response rating, Lambsquarters", "setting": "[4]; [15]", "result": 100}, {"measurement": "Plant response rating, Lambsquarters", "setting": "[4]; [16]", "result": 90}, {"measurement": "Plant response rating, Lambsquarters", "setting": "[4]; [17]", "result": 100}, {"measurement": "Plant response rating, Johnsongrass", "setting": "[5]; [15]", "result": 70}, {"measurement": "Plant response rating, Johnsongrass", "setting": "[5]; [16]", "result": 30}, {"measurement": "Plant response rating, Johnsongrass", "setting": "[5]; [17]", "result": 90}, {"measurement": "Plant response rating, Velvetleaf", "setting": "[6]; [15]", "result": 0}, {"measurement": "Plant response rating, Velvetleaf", "setting": "[6]; [16]", "result": 0}, {"measurement": "Plant response rating, Velvetleaf", "setting": "[6]; [17]", "result": 0}, {"measurement": "Plant response rating, Cocklebur", "setting": "[7]; [15]", "result": 0}, {"measurement": "Plant response rating, Cocklebur", "setting": "[7]; [16]", "result": 0}, {"measurement": "Plant response rating, Cocklebur", "setting": "[7]; [17]", "result": 0}, {"measurement": "Plant response rating, Cupgrass, Woolly", "setting": "[8]; [15]", "result": 80}, {"measurement": "Plant response rating, Cupgrass, Woolly", "setting": "[8]; [16]", "result": 40}, {"measurement": "Plant response rating, Cupgrass, Woolly", "setting": "[8]; [17]", "result": 80}, {"measurement": "Plant response rating, Nightshade", "setting": "Nightshade; Rate 31 g/ha, scale 0 to 100", "result": 80}, {"measurement": "Plant response rating, Nightshade", "setting": "Nightshade; [15]", "result": 90}, {"measurement": "Plant response rating, Nightshade", "setting": "Nightshade; Rate 125 g/ha, scale 0 to 100, 0 no effect, 100 complete control", "result": 100}, {"measurement": "Plant response rating, Pigweed", "setting": "[9]; [15]", "result": 80}, {"measurement": "Plant response rating, Pigweed", "setting": "[9]; [16]", "result": 30}, {"measurement": "Plant response rating, Pigweed", "setting": "[9]; [17]", "result": 100}, {"measurement": "Plant response rating, Kochia", "setting": "kochia (Kochia scoparia); [15]", "result": 90}, {"measurement": "Plant response rating, Kochia", "setting": "kochia (Kochia scoparia); [16]", "result": 90}, {"measurement": "Plant response rating, Kochia", "setting": "kochia (Kochia scoparia); [17]", "result": 90}, {"measurement": "Plant response rating, Foxtail, Giant", "setting": "[10]; [15]", "result": 80}, {"measurement": "Plant response rating, Foxtail, Giant", "setting": "[10]; [16]", "result": 0}, {"measurement": "Plant response rating, Foxtail, Giant", "setting": "[10]; [17]", "result": 90}, {"measurement": "Plant response rating, Surinam grass", "setting": "[11]; [15]", "result": 0}, {"measurement": "Plant response rating, Surinam grass", "setting": "[11]; [16]", "result": 0}, {"measurement": "Plant response rating, Surinam grass", "setting": "[11]; [17]", "result": 30}, {"measurement": "Plant response rating, Soybean", "setting": "soybean (Glycine max); [15]", "result": 40}, {"measurement": "Plant response rating, Soybean", "setting": "soybean (Glycine max); [16]", "result": 30}, {"measurement": "Plant response rating, Soybean", "setting": "soybean (Glycine max); [17]", "result": 80}, {"measurement": "Plant response rating, Corn", "setting": "corn (Zea mays); [15]", "result": 20}, {"measurement": "Plant response rating, Corn", "setting": "corn (Zea mays); [16]", "result": 20}, {"measurement": "Plant response rating, Corn", "setting": "corn (Zea mays); [17]", "result": 20}, {"measurement": "Plant response rating, Bermudagrass", "setting": "[12]; [15]", "result": 100}, {"measurement": "Plant response rating, Bermudagrass", "setting": "[12]; [16]", "result": 60}, {"measurement": "Plant response rating, Bermudagrass", "setting": "[12]; [17]", "result": 100}, {"measurement": "Plant response rating, Sunflower", "setting": "Sunflower", "result": 60}]}
